Laboratory results reported in patent US11590139B2, “Substituted aminopurine compounds, compositions thereof, and methods of treatment therewith” (Signal Pharmaceuticals, LLC, priority 2014, dated 2023).

The compounds below were run on Lox-IMVI melanoma cell line (assay: Lox-IMVI anti-proliferative assay (growth inhibition, Cell Titer-Glo)). Settings: Homo sapiens; Lox-IMVI melanoma cell line, anti-proliferative assay; read-out: Activity (IC50 activity level).
Assay type: cell-based, human
Summary of the method: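 IC50 values reflect the concentration giving 50% of DMSO-control luminescence after 72 h of treatment, fitted with a four-parameter logistic model. Cells were cultured in RPMI + 10% FBS with compound from 0.5 nM to 10 μM.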
`CC(C)OC(=O)N1CCC[C@@H](Nc2ncc3nc(Nc4c(Cl)cc(C#N)cc4Cl)n([C@H]4CC[C@@H](C(N)=O)CC4)c3n2)C1` [Example 769, (R)-isopropyl 3-(9-((1s,4S)-4-carbamoylcyclohexyl)-8-(2,6-dichloro-4-cyanophenylamino)-9H-purin-2-ylamino)piperidine-1-carboxylate] gave an IC50 of 500 to 1000 nM.
Work on `CC(C)OC(=O)N1CCC[C@@H](Nc2ncc3nc(Nc4c(Cl)cc(C(F)(F)F)cc4Cl)n([C@H]4CC[C@@H](C(N)=O)CC4)c3n2)C1` [Example 770, (R)-isopropyl 3-(9-((1s,4S)-4-carbamoylcyclohexyl)-8-(2,6-dichloro-4-(trifluoromethyl)phenylamino)-9H-purin-2-ylamino)piperidine-1-carboxylate] yielded an IC50 of over 1000 nM.
With `CC(C)OC(=O)N1CCC[C@@H](Nc2ncc3nc(Nc4c(F)cc(C#N)cc4F)n([C@H]4CC[C@@H](C(N)=O)CC4)c3n2)C1` [Example 771, (R)-isopropyl 3-(9-((1s,4S)-4-carbamoylcyclohexyl)-8-(4-cyano-2,6-difluorophenylamino)-9H-purin-2-ylamino)piperidine-1-carboxylate] the IC50 was over 1000 nM.
In the case of `CC(C)OC(=O)N1CCC[C@@H](Nc2ncc3nc(Nc4c(F)cc(F)cc4F)n([C@H]4CC[C@@H](C(N)=O)CC4)c3n2)C1` [Example 772, (R)-isopropyl 3-(9-((1s,4S)-4-carbamoylcyclohexyl)-8-(2,4,6-trifluorophenylamino)-9H-purin-2-ylamino)piperidine-1-carboxylate], the IC50 is reported as over 1000 nM.
`CC(C)OC(=O)N1CCC[C@@H](Nc2ncc3nc(Nc4c(F)cc(Cl)cc4F)n([C@H]4CC[C@@H](C(N)=O)CC4)c3n2)C1` [Example 773, (R)-isopropyl 3-(9-((1s,4S)-4-carbamoylcyclohexyl)-8-(4-chloro-2,6-difluorophenylamino)-9H-purin-2-ylamino)piperidine-1-carboxylate] gave an IC50 of 500 to 1000 nM.
`CC(C)OC(=O)N1CCC[C@@H](Nc2ncc3nc(Nc4c(F)cc(Cl)cc4Cl)n([C@H]4CC[C@@H](C(N)=O)CC4)c3n2)C1` [Example 774, (R)-isopropyl 3-(9-((1s,4S)-4-carbamoylcyclohexyl)-8-(2,4-dichloro-6-fluorophenylamino)-9H-purin-2-ylamino)piperidine-1-carboxylate] gave an IC50 of 250 to 500 nM.
For `CC(C)OC(=O)N1CCC[C@@H](Nc2ncc3nc(Nc4c(Cl)cc(F)cc4Cl)n([C@H]4CC[C@@H](C(N)=O)CC4)c3n2)C1` [Example 775, (R)-isopropyl 3-(9-((1s,4S)-4-carbamoylcyclohexyl)-8-(2,6-dichloro-4-fluorophenylamino)-9H-purin-2-ylamino)piperidine-1-carboxylate], the IC50 was over 1000 nM.
With `N#Cc1cc(F)c(Nc2nc3cnc(N[C@@H]4CCCN(Cc5ccccc5)C4)nc3n2[C@H]2CC[C@@H](C(N)=O)CC2)c(Cl)c1` [Example 777, (1S,4s)-4-(2-((R)-1-benzylpiperidin-3-ylamino)-8-(2-chloro-4-cyano-6-fluorophenylamino)-9H-purin-9-yl)cyclohexanecarboxamide] the IC50 was over 1000 nM.
With `NC(=O)[C@H]1CC[C@@H](n2c(Nc3c(F)cc(F)cc3Cl)nc3cnc(N[C@@H]4CCCN(C(=O)Nc5ccccc5)C4)nc32)CC1` [Example 778, (R)-3-(9-((1s,4S)-4-carbamoylcyclohexyl)-8-(2-chloro-4,6-difluorophenylamino)-9H-purin-2-ylamino)-N-phenylpiperidine-1-carboxamide] the IC50 was over 1000 nM.
Compound `NC(=O)[C@H]1CC[C@@H](n2c(Nc3c(Cl)cc(Cl)cc3Cl)nc3cnc(N[C@@H]4CCCN(C(=O)Nc5ccccc5)C4)nc32)CC1` [Example 779, (R)-3-(9-((1s,4S)-4-carbamoylcyclohexyl)-8-(2,4,6-trichlorophenylamino)-9H-purin-2-ylamino)-N-phenylpiperidine-1-carboxamide] has an IC50 of 500 to 1000 nM.
Compound `N#Cc1cc(Cl)c(Nc2nc3cnc(N[C@@H]4CCCN(C(=O)Nc5ccccc5)C4)nc3n2[C@H]2CC[C@@H](C(N)=O)CC2)c(Cl)c1` [Example 780, (R)-3-(9-((1s,4S)-4-carbamoylcyclohexyl)-8-(2,6-dichloro-4-cyanophenylamino)-9H-purin-2-ylamino)-N-phenylpiperidine-1-carboxamide] has an IC50 of over 1000 nM.
Work on `NC(=O)[C@H]1CC[C@@H](n2c(Nc3c(F)cc(F)cc3F)nc3cnc(N[C@@H]4CCCN(C(=O)Nc5ccccc5)C4)nc32)CC1` [Example 781, (R)-3-(9-((1s,4S)-4-carbamoylcyclohexyl)-8-(2,4,6-trifluorophenylamino)-9H-purin-2-ylamino)-N-phenylpiperidine-1-carboxamide] yielded an IC50 of over 1000 nM.
`NC(=O)[C@H]1CC[C@@H](n2c(Nc3c(F)cc(Cl)cc3F)nc3cnc(N[C@@H]4CCCN(C(=O)Nc5ccccc5)C4)nc32)CC1` [Example 782, (R)-3-(9-((1s,4S)-4-carbamoylcyclohexyl)-8-(4-chloro-2,6-difluorophenylamino)-9H-purin-2-ylamino)-N-phenylpiperidine-1-carboxamide] gave an IC50 of over 1000 nM.
`NC(=O)[C@H]1CC[C@@H](n2c(Nc3c(F)cc(Cl)cc3Cl)nc3cnc(N[C@@H]4CCCN(C(=O)Nc5ccccc5)C4)nc32)CC1` [Example 783, (R)-3-(9-((1s,4S)-4-carbamoylcyclohexyl)-8-(2,4-dichloro-6-fluorophenylamino)-9H-purin-2-ylamino)-N-phenylpiperidine-1-carboxamide] showed an IC50 of over 1000 nM.
Compound `NC(=O)[C@H]1CC[C@@H](n2c(Nc3c(Cl)cc(F)cc3Cl)nc3cnc(N[C@@H]4CCCN(C(=O)Nc5ccccc5)C4)nc32)CC1` [Example 784, (R)-3-(9-((1s,4S)-4-carbamoylcyclohexyl)-8-(2,6-dichloro-4-fluorophenylamino)-9H-purin-2-ylamino)-N-phenylpiperidine-1-carboxamide] has an IC50 of over 1000 nM.
Work on `N#Cc1cc(F)c(Nc2nc3cnc(N[C@@H]4CCCN(C(=O)Nc5ccccc5)C4)nc3n2[C@H]2CC[C@@H](C(N)=O)CC2)c(Cl)c1` [Example 785, (R)-3-(9-((1s,4S)-4-carbamoylcyclohexyl)-8-(2-chloro-4-cyano-6-fluorophenylamino)-9H-purin-2-ylamino)-N-phenylpiperidine-1-carboxamide] yielded an IC50 of over 1000 nM.
`CC1(C)COCC[C@H]1Nc1ncc2nc(Nc3c(F)cc(Cl)cc3F)n([C@H]3CC[C@@H](C(N)=O)CC3)c2n1` [Example 786, (1S,4s)-4-(8-(4-chloro-2,6-difluorophenylamino)-2-((R)-3,3-dimethyltetrahydro-2H-pyran-4-ylamino)-9H-purin-9-yl)cyclohexanecarboxamide] showed an IC50 of over 1000 nM.
In the case of `Cc1ccc(S(=O)(=O)N2CCC[C@@H](Nc3ncc4nc(Nc5c(F)cc(F)cc5Cl)n([C@H]5CC[C@@H](C(N)=O)CC5)c4n3)C2)cc1` [Example 787, (1S,4s)-4-(8-(2-chloro-4,6-difluorophenylamino)-2-((R)-1-tosylpiperidin-3-ylamino)-9H-purin-9-yl)cyclohexanecarboxamide], the IC50 is reported as over 1000 nM.
`Cc1ccc(S(=O)(=O)N2CCC[C@@H](Nc3ncc4nc(Nc5c(Cl)cc(Cl)cc5Cl)n([C@H]5CC[C@@H](C(N)=O)CC5)c4n3)C2)cc1` [Example 788, (1S,4s)-4-(2-((R)-1-tosylpiperidin-3-ylamino)-8-(2,4,6-trichlorophenylamino)-9H-purin-9-yl)cyclohexanecarboxamide] showed an IC50 of over 1000 nM.
Compound `Cc1ccc(S(=O)(=O)N2CCC[C@@H](Nc3ncc4nc(Nc5c(Cl)cc(C#N)cc5Cl)n([C@H]5CC[C@@H](C(N)=O)CC5)c4n3)C2)cc1` [Example 789, (1S,4s)-4-(8-(2,6-dichloro-4-cyanophenylamino)-2-((R)-1-tosylpiperidin-3-ylamino)-9H-purin-9-yl)cyclohexanecarboxamide] has an IC50 of over 1000 nM.
Compound `Cc1ccc(S(=O)(=O)N2CCC[C@@H](Nc3ncc4nc(Nc5c(F)cc(C#N)cc5F)n([C@H]5CC[C@@H](C(N)=O)CC5)c4n3)C2)cc1` [Example 790, (1S,4s)-4-(8-(4-cyano-2,6-difluorophenylamino)-2-((R)-1-tosylpiperidin-3-ylamino)-9H-purin-9-yl)cyclohexanecarboxamide] has an IC50 of over 1000 nM.
`Cc1ccc(S(=O)(=O)N2CCC[C@@H](Nc3ncc4nc(Nc5c(F)cc(F)cc5F)n([C@H]5CC[C@@H](C(N)=O)CC5)c4n3)C2)cc1` [Example 791, (1S,4s)-4-(2-((R)-1-tosylpiperidin-3-ylamino)-8-(2,4,6-trifluorophenylamino)-9H-purin-9-yl)cyclohexanecarboxamide] was tested, and the IC50 was over 1000 nM.
`Cc1ccc(S(=O)(=O)N2CCC[C@@H](Nc3ncc4nc(Nc5c(F)cc(Cl)cc5F)n([C@H]5CC[C@@H](C(N)=O)CC5)c4n3)C2)cc1` [Example 792, (1S,4s)-4-(8-(4-chloro-2,6-difluorophenylamino)-2-((R)-1-tosylpiperidin-3-ylamino)-9H-purin-9-yl)cyclohexanecarboxamide] gave an IC50 of over 1000 nM.
`Cc1ccc(S(=O)(=O)N2CCC[C@@H](Nc3ncc4nc(Nc5c(F)cc(Cl)cc5Cl)n([C@H]5CC[C@@H](C(N)=O)CC5)c4n3)C2)cc1` [Example 793, (1S,4s)-4-(8-(2,4-dichloro-6-fluorophenylamino)-2-((R)-1-tosylpiperidin-3-ylamino)-9H-purin-9-yl)cyclohexanecarboxamide] showed an IC50 of over 1000 nM.
`Cc1ccc(S(=O)(=O)N2CCC[C@@H](Nc3ncc4nc(Nc5c(Cl)cc(F)cc5Cl)n([C@H]5CC[C@@H](C(N)=O)CC5)c4n3)C2)cc1` [Example 794, (1S,4s)-4-(8-(2,6-dichloro-4-fluorophenylamino)-2-((R)-1-tosylpiperidin-3-ylamino)-9H-purin-9-yl)cyclohexanecarboxamide] gave an IC50 of over 1000 nM.
`Cc1ccc(S(=O)(=O)N2CCC[C@@H](Nc3ncc4nc(Nc5c(F)cc(C#N)cc5Cl)n([C@H]5CC[C@@H](C(N)=O)CC5)c4n3)C2)cc1` [Example 795, (1S,4s)-4-(8-(2-chloro-4-cyano-6-fluorophenylamino)-2-((R)-1-tosylpiperidin-3-ylamino)-9H-purin-9-yl)cyclohexanecarboxamide] was tested, and the IC50 was over 1000 nM.
